What was measured:
H1002 lung cancer cells = experiment: Subcutaneous lung cancer xenografts (H1002); format: in vivo, mouse; conditions: 50 mg/kg once daily oral gavage, from two weeks after inoculation; p<0.01
Experimental: (§1) (A) Effects of BACE1 inhibitors on lung cancer cell proliferation. H1002 and H146 lung cancer cells were treated with the indicated concentrations of the BACE1 inhibitor AZD3293, MK-8931, AZD3839, or PF-06751979 (PF) for 72 hours. Cell viability was assessed by cell titer assay (n=3). (B-D) A preclinical trial of MK-8931 for lung cancer treatment in xenograft models. H1002 lung cancer cells (5×106) were transplanted into mouse right flank through subcutaneous injection to establish subcutaneous lung cancer xenografts. […] Tumors dissected from mice of each group were photographed (C) and weighed (D). […] Data are shown as mean SEM. p **<0.01, Student's t-test.

[1] = test system: GBM xenografts derived from T4121 GSCs; experiment: Intracranial GBM xenografts from T4121 glioma stem cells; format: in vivo, mouse
Excerpt: FIG. 4, panels A-F. BACE1 Inhibition by MK-8931 Converts M2 TAMs into M1 Macrophages to Phagocytize Glioma Cells in GBM Xenografts. (A and B) Density analysis of M2 TAMs by immunofluorescent staining of the M2 TAM marker (CD163 or FIZZ1) and the total TAM marker IBA1 and in GBM xenografts treated with MK-8931 or vehicle control. GBM xenografts were established by implantation of glioma stem cells (T4121) through intracranial injection. […] Representative immunofluorescent images (A) showing M2 TAMs (CD163^+ or FIZZ1^+, in red) and total TAMs (IBA1^+, in green) in the MK-8931-treated or control GBM xenografts. […] (C and D) Density analysis of M1 TAMs by immunofluorescent staining of the M TAM marker (HLA-DR or CD11c) and the total TAM marker IBA1 and in GBM xenografts treated with MK-8931 or vehicle control. […] Representative immunofluorescent images (C) showing M1 TAMs (HLA-DR^+ or CD11c^+, in red) and total TAMs (IBA1^+, in green) in the MK-8931-treated or control GBM xenografts. […] (E and F) In vivo phagocytosis of TAMs against human glioma cells in the MK-8931-treated or control GBM xenografts. […] Representative images (E) showing in vivo TAM phagocytosis as inclusion bodies of glioma cells (TRA-1-85^+, in red) with TAMs (IBA1, in green) in the MK-8931 treated GBM xenografts but not in the control tumors. […] Scale bar represents 30 μM. Ctl: Control; MK: MK-8931.

[2] = test system: iPSC-derived M2 macrophages; experiment: Fluorescent phagocytosis screening assay, iPSC-derived M2 macrophages against glioma cells; format: cell-based, human
[3] = test system: GBM xenografts derived from T4121 GSCs; experiment: Intracranial GBM xenografts from T4121 glioma stem cells; format: in vivo, mouse; remark: listed apart in the source
HepG2 liver cancer cells = experiment: Subcutaneous liver cancer xenografts (HepG2); format: in vivo, mouse; conditions: 50 mg/kg once daily oral gavage, from two weeks after inoculation; p<0.05
Excerpt: (A-C) A preclinical trial of MK-8931 for liver cancer treatment xenograft models. HepG2 liver cancer cells (5×106) were transplanted into mouse right flank through subcutaneous injection to establish subcutaneous liver cancer xenografts. […] Tumors dissected from mice of each group were photographed (B) and weighed (C).

[4] = test system: GSCs (T387, T4121, and U87); experiment: Cell viability (cell titer) assay on glioma stem cells; format: cell-based, human; conditions: MK-8931 10 and 50 μg/mL, three days
Experimental: FIG. 16, panels A-E. MK-8931 Treatment Had Little Effect on Glioma Stem Cells. (A and B) Tumorsphere formation assay to examine the effect of MK-8931 treatment on glioma stem cells (GSCs). Representative images (A) of tumorsphere derived from T4121 GSCs treated with MK-8931 (50 μg/mL) or the vehicle control. Quantifications (B) show the number and size of tumorsphere derived from T4121 GSCs treated with MK-8931 (50 μg/mL) or the control. Data are shown as mean±SEM. NS (not significant)≥0.05, Student's t-test. […] GAPDH was blotted as loading control. (D) Immunoblot analysis of the apoptotic markers cleaved-PARP and cleaved caspase-3 in GSCs (T387 and T4121) treated with MK-8931 (50 μg/mL), etoposide (Etop, 1 μM), or the vehicle control for different time as indicated. GAPDH was blotted as loading control. […] Ctl: Control; Etop: Etoposide. (E) Cell viability assay to examine the effect of MK-8931 treatment on proliferation of glioma stem cells. […] Data are shown as mean±SEM. NS (not significant)≥0.05, Student's t-test.
Cell viability assay was performed by using a Cell Titer-Glo Luminescent Cell Viability Assay Kit according to the manufacturer's instruction (Promega, G7571). For this assay, 1,000 cells were seeded on one well of a 96-well plate in 100 μL of stem cell medium. […] Plate was loaded on the VICTOR Multilabel Plate Reader (PerkinElmer) and the readout were recorded and analyzed. […]

[5] = test system: H1002 and H146 lung cancer cells; experiment: Cell titer viability assay on lung cancer cells; format: cell-based, human; conditions: indicated concentrations, 72 hours, n=3
Experimental: as §1

[6] = test system: intracranial xenografts of lung ADC (H1002); experiment: Intracranial xenografts of lung adenocarcinoma (H1002) brain metastases; format: in vivo, mouse; conditions: 30 mg/kg once daily oral
Experimental: The lung cancer cells (H1002, ADC) expressing luciferase were transplanted into mouse brains to establish intracranial xenografts of lung ADC. […] Data are shown as mean±SEM. * p<0.05, *** p<0.001, and NS (not significant)≥0.05; Student's t-test.
The lung ADC cancer cells (H1002) expressing luciferase were transplanted into mouse brains to establish intracranial xenografts of lung ADC. […] IVIS was performed twice per week to monitor tumor growth. When humane endpoints occur, mouse was anesthetized and brains with xenografts were harvested for further analyses. […] Frozen xenograft sections were immunostained with a specific antibody against cleaved caspase-3 (in green) and counterstained with DAPI (in blue). […] Frozen xenograft sections were immunostained with a specific antibody against cleaved GLUT1 (in green) and counterstained with DAPI (in blue). […] Frozen xenograft sections were immunostained with a specific antibody against Ki-67 (in green) and counterstained with DAPI (in blue). […] Data are shown as mean±SEM of at least 6 images from 3-5 mice. * p<0.05 and ** p<0.01; Student's t-test.
In brief, GSCs (T4121 and T387) or lung ADC cells (H1002) expressing luciferase were injected into the right cerebral cortex at a depth of 3.5 mm. Seven days after the implantation, IVIS was performed twice per week to monitor the tumor growth under the Spectrum CT Imaging System (PerkinElmer) before and after treatment. […] Mouse brains bearing the tumors were collected for immunofluorescent, histochemical and histological analyses.
Primary antibodies were added to the sections or cells and incubated overnight at 4° C. […] After the incubation of the primary antibodies, the sections or cells were washed three times with cold PBS for five minutes each and then incubated with the secondary antibodies for one hour at room temperature. […] Finally, images were captured by a fluorescence microscopy (Leica DM4000) and further analyzed with ImageJ software.

[7] = 30 mg/kg once daily oral gavage two weeks
[8] = 30 mg/kg once daily oral gavage two weeks, p<0.001

CN1C(N)=N[C@](C)(c2cc(NC(=O)c3ccc(F)cn3)ccc2F)CS1(=O)=O [MK-8931]
tumor growth (tumor weight) (H1002 lung cancer cells): markedly inhibited lung tumor growth
IBA1+/pSTAT3+ double positive cells (TAMs) [1, 7]: significantly reduced STAT3 activating phosphorylation in TAMs
pSTAT3+ cells in xenografts [1, 7]: significantly reduced STAT3 activating phosphorylation in GBM xenografts
density of M1 TAMs (HLA-DR+/IBA1+ or CD11c+/IBA1+) [1, 8]: significantly increased density of M1 TAMs
density of M2 TAMs (CD163+/IBA1+ or FIZZ1+/IBA1+) [1, 8]: significantly reduced density of M2 TAMs
in vivo TAM phagocytosis (inclusion bodies of TRA-1-85+ glioma cells with IBA1+ TAMs) ([1]; 30 mg/kg once daily oral gavage, p<0.01): promoted TAM phagocytosis
macrophage phagocytosis against cancer cells [2]: promotes macrophage phagocytosis against cancer cells
phagocytosis of iPSC-derived macrophages against human glioma cells (inclusion bodies) ([2]; MK-8931 50 μg/mL two days, T4121 tdTomato cells co-incubated two hours, p<0.001 vs vehicle): potently induced phagocytosis of iPSC-derived macrophages
screen of drug libraries and known inhibitors for promoters of macrophage phagocytosis: hit ([2]; glioma cells and lung ADC cells): hits
IL1β expression (IHC intensity) [3, 8]: significantly induced IL1β expression
IL10 expression (IHC intensity) [3, 8]: significantly reduced IL10 expression
TGF-β expression (IHC intensity) [3, 8]: significantly reduced TGF-β expression
TNFα expression (IHC intensity) [3, 8]: significantly induced TNFα expression
tumor growth (mean bioluminescence) ([3]; 30 mg/kg/daily oral, Days 7, 14, and 21): significantly inhibited tumor growth of GBM xenografts
survival (Kaplan-Meier) ([3]; 30 mg/kg/daily oral, log-rank p<0.01): significantly extended the survival of mice bearing the GBM tumors
apoptosis (cleaved caspase-3+ cells) ([3]; 30 mg/kg/daily oral, p<0.001): significantly increased apoptosis
GSC population (SOX2+ cells) ([3]; 30 mg/kg/daily oral, p<0.01): significantly reduced GSCs
proliferative cells (Ki-67+) ([3]; 30 mg/kg/daily oral, p<0.01): significantly reduced proliferative cells
vessel density (CD31) ([3]; 30 mg/kg/daily oral, p<0.01): significantly reduced vessel density
tumor growth (tumor weight) (HepG2 liver cancer cells): significantly inhibited liver tumor growth
proliferation / cell viability of glioma stem cells (cell titer) [4]: did not affect
lung cancer cell proliferation (cell viability) [5]: suppressed lung cancer cell proliferation
tumor growth (mean bioluminescence) ([6]; Days 7, 14 and 21): significantly inhibited tumor growth of lung ADC brain metastases
M1 TAMs (HLA-DR+/IBA1+ cells) ([6]; p<0.001): significantly increased M1 TAMs
M2 TAMs (CD163+/IBA1+ cells) ([6]; p<0.001): significantly reduced M2 TAMs
survival (Kaplan-Meier) ([6]; p<0.001 by log-rank): significantly extended the survival of animals bearing the intracranial lung ADC xenografts
cell proliferation (fraction of Ki-67+ cells) ([6]; p<0.01): significantly reduced cell proliferation
apoptosis (fraction of cleaved caspase-3+ cells) ([6]; p<0.05): significantly augmented apoptosis
in vivo TAM phagocytosis (inclusion bodies) ([6]; p<0.05): significantly increased TAM phagocytosis against human lung ADC cells
vessel density (GLUT1+ cells) ([6]; p<0.05): significantly reduced vessel density

From US11559528B2, “BACE1 inhibition for the treatment of cancer” (The Cleveland Clinic Foundation, priority 2019, dated 2023)
